Legend:
[1] = system: rat; experiment: concentration in plasma after dosing; settings: male
[2] = system: rat; experiment: concentration in brain after dosing; settings: dosed: Imipramine, 10.0000000000 mg/kg, iv, male, Wistar
[3] = system: rat; experiment: concentration in plasma after dosing; settings: dosed: Pentadecafluorooctanoic acid, 0.2000000000 mg/kg, iv, male, Sprague-Dawley
[4] = system: rat; experiment: concentration in plasma after dosing; settings: dosed: Pentadecafluorooctanoic acid, 0.2000000000 mg/kg, iv, male, Sprague-Dawley; remark: listed apart in the source
[5] = system: rat; experiment: concentration in plasma after dosing; settings: dosed: Pentadecafluorooctanoic acid, 1.0000000000 mg/kg, oral, male, Sprague-Dawley
[6] = system: rat; experiment: concentration in plasma after dosing; settings: dosed: Pentadecafluorooctanoic acid, 1.0000000000 mg/kg, oral, male, Sprague-Dawley; remark: listed apart in the source
[7] = system: rat; experiment: concentration in plasma after dosing; settings: dosed: Pentadecafluorooctanoic acid, 1.0000000000 mg/kg, oral, male, Sprague-Dawley; remark: listed apart in the source
[8] = system: rat; experiment: concentration in plasma after dosing; settings: dosed: Pentadecafluorooctanoic acid, 0.2000000000 mg/kg, iv, male, Sprague-Dawley; remark: listed apart in the source

COc1ccccc1Oc1c(NS(=O)(=O)c2ccc(C(C)(C)C)cc2)nc(-c2ncccn2)nc1OCCO [Bosentan]
concentration in plasma [ng/mL], [1], dosed: Bosentan, Wistar
Settings	0.5 h	1 h	2 h	2 min	3 h	4 h	6 h	8 h	10 min	20 min
1.0000000000 mg/kg, iv	168	128	78.9	1950	61.3	38.3	18.3	10.5	323	212
10.0000000000 mg/kg, oral	–	622	608	–	–	360	157	60	–	–

COC(=O)Nc1nc2ccccc2[nH]1 [Carbendazim]
[1], dosed: Carbendazim, 1000.0000000000 mg/kg, oral, Sprague-Dawley
Settings	concentration in plasma [ng/mL]
0.25 h	10000
0.5 h	11600
1 h	14700
2 h	20200
4 h	14100
8 h	4590
20 h	49.4

CCOP(=S)(OCC)Oc1nc(Cl)c(Cl)cc1Cl [Chlorpyrifos]
concentration in plasma [ng/mL], [1], dosed: Chlorpyrifos, oral, F344
Settings	1 h	3 h	5 min	6 h	12 h	20 min
5.0000000000 mg/kg	1.39	30	–	13.1	1.81	–
10.0000000000 mg/kg	5.05	109	–	18.7	1.76	–
50.0000000000 mg/kg	51	326	0.559	79.3	15.5	1.42
100.0000000000 mg/kg	246	759	0.665	202	278	7.47

COc1ccc([C@@H]2Sc3ccccc3N(CCN(C)C)C(=O)[C@@H]2OC(C)=O)cc1 [Diltiazem]
concentration in plasma [ng/mL], [1], dosed: Diltiazem, 20.0000000000 mg/kg, Sprague-Dawley
Settings	0.16 h	0.25 h	1 h	1.5 h	2 h	3 h	4 h	6 h	8 h	10 h
iv	7870	5050	2530	1510	956	636	202	69.3	78	22.5
oral	1220	488	248	189	271	160	52.8	19.4	–	–

CNC(=O)Oc1cccc(N=CN(C)C)c1.Cl [Formetanate hydrochloride]
concentration in plasma [ng/mL], [1], dosed: Formetanate hydrochloride, Sprague-Dawley
Settings	0.25 h	1 h	2 h	24 h	48 h	72 h
1.0000000000 mg/kg, iv	–	–	–	7.9	2.2	–
5.0000000000 mg/kg, oral	262	53.2	9.57	1.64	12.4	5.13

CN(C)CCCN1c2ccccc2CCc2ccccc21 [Imipramine]
[2]
Settings	concentration in brain [µg/g]
1 h	8.5
2 h	3.6
4 h	1.61
5 min	14.7
10 min	15.1

concentration in plasma [ng/mL], [1], dosed: Imipramine
Settings	0.1287 h	0.25 h	0.5 h	1 h	2 h	4 h	8 h	16 h	24 h	208 s
10.0000000000 mg/kg, iv, Wistar	1620	–	853	719	238	46.3	–	–	–	2340
50.0000000000 mg/kg, oral, Sprague-Dawley	–	99.1	75.7	120	73.9	58.7	38.6	33.5	28.3	–

Cc1ncc2n1-c1ccc(Cl)cc1C(c1ccccc1F)=NC2 [Midazolam]
concentration in plasma [ng/mL], [1], dosed: Midazolam, Sprague-Dawley
Settings	0.25 h	0.5 h	1 h	1.5 h	2 h	3 h	4 h	5 min	10 min
5.0000000000 mg/kg, iv	964	570	255	125	62.5	16.1	1	2210	1080
15.0000000000 mg/kg, oral	134	163	123	113	88.5	37.7	19.8	12.9	71.1

O=C(O)C(F)(F)C(F)(F)C(F)(F)C(F)(F)C(F)(F)C(F)(F)C(F)(F)F [Pentadecafluorooctanoic acid]
concentration in plasma [ng/mL]
Settings	[3]	[4]	[5]	[6]	[7]	[8]
0.25 h	–	–	762	363	248	–
0.5 h	150	245	608	540	379	188
1 h	144	226	897	669	665	189
2 h	138	236	950	957	764	196
4 h	168	196	924	1040	765	189
5 min	208	310	–	–	–	257
8 h	148	207	1210	1100	955	171
10 min	176	280	–	–	–	207
12 h	147	194	1180	1100	1030	135
24 h	141	195	1130	1040	1010	168
48 h	115	161	916	1510	857	148
72 h	98	153	855	663	563	122

[1], dosed: Pentadecafluorooctanoic acid, Sprague-Dawley
Settings	concentration in plasma [ng/mL]
0.25 h, 1.0000000000 mg/kg, oral	420
0.5 h, 0.2000000000 mg/kg, iv	156
0.5 h, 1.0000000000 mg/kg, oral	584
1 h, 0.2000000000 mg/kg, iv	145
1 h, 1.0000000000 mg/kg, oral	885
2 h, 0.2000000000 mg/kg, iv	150
2 h, 1.0000000000 mg/kg, oral	1170
4 h, 0.2000000000 mg/kg, iv	141
4 h, 1.0000000000 mg/kg, oral	1190
5 min, 0.2000000000 mg/kg, iv	221
8 h, 0.2000000000 mg/kg, iv	123
8 h, 1.0000000000 mg/kg, oral	1140
10 min, 0.2000000000 mg/kg, iv	188
12 h, 0.2000000000 mg/kg, iv	142
12 h, 1.0000000000 mg/kg, oral	1120
24 h, 0.2000000000 mg/kg, iv	139
24 h, 1.0000000000 mg/kg, oral	1270
48 h, 0.2000000000 mg/kg, iv	59
48 h, 1.0000000000 mg/kg, oral	911
72 h, 0.2000000000 mg/kg, iv	100
72 h, 1.0000000000 mg/kg, oral	655

Reference: EPA's CvTdb concentration-time database (doi:10.1093/toxsci/kfy020)
